Results on 8 compounds are retold here after article PMC12980303, “Development of a novel risk score reflecting the relative harm potential of synthetic cannabinoids based on prevalence estimates, well‐documented intoxication cases and basic pharmacological data” (Addiction (Abingdon, England), 2025).

The target in series [1] is T1, hCB1 receptor (Homo sapiens, UniProt P21554). Also on record: method as in Gamage et al. [40]. Particulars: cited from earlier work.
Series [2] can be described thus: LC–MS/MS analysis of serum and urine samples of intoxication cases. It is filed as in vivo, human. Particulars: patient serum. The method, then: (§1) The data on intoxication cases used for the development of this risk score were obtained from a prospective study. This study included patients who were treated in an emergency department room following the consumption of an NPS. Clinical symptoms and follow‐up information were documented using a structured questionnaire completed by the attending physicians. The methodology has been previously published. Residual serum (obtained from venous blood) and urine samples, accompanied by the completed questionnaires, were sent to the Poisons Information Center Freiburg for further analysis. The toxicological analyses of serum and urine samples were conducted at the Institute of Forensic Medicine Freiburg. No data was available on previous consumption patterns or potential development of tolerance after continued misuse. The study was conducted in accordance with the Declaration of Helsinki and approved by the regional ethics committee of the University of Freiburg (no. 235/13_130683). The intoxication cases included in this study are those in which SCRA use was confirmed by liquid chromatography tandem mass spectrometry (LC–MS/MS).
Serum/blood and urine analyses were conducted at the Institute of Forensic Medicine Freiburg using previously published LC–MS/MS methods, that were modified by adding further analytes present in ‘legal‐high’ products (‘herbal blends’, ‘C‐liquids’ or ‘research chemicals’), and covered approximately 100 different SCRAs. Detailed information can be found in the Supporting Information.
Urine samples were analysed according to previously published and validated method by Franz et al.^2. For sample preparation 0.5 mL of phosphate buffer (pH 6) and 30 μL of β-glucuronidase were added to 0.5 mL of urine. Incubation was for 60 min at 45°C. This was followed by protein precipitation using 1.5 mL acetonitrile containing the internal standard (c = 2 ng/mL) and 0.56 mL 10 M ammonium formate solution, followed by shaking and centrifugation. 1 mL of the organic phase was transferred into an autosampler vial and evaporated to dryness under N2. The samples were reconstituted in 200 μL mobile phase.
Urine sample analysis was performed on a Dionex UltiMate® 3000RS UHPLC (Thermo Scientific, Dreieich, Germany) coupled to an API 5000^TM triple quadrupole instrument with a TurboIonSpray® interface (Sciex, Darmstadt, Germany). Separation was performed on a Luna C18 100 Å (150 x 2 mm, 5 μm) column with the mobile phase consisting of 0.2% HCOOH and 2 mmol/L NH^4+HCOO^− in water (A) and acetonitrile (B).

Series [3] can be described thus: risk score from prevalence in routine forensic samples and intoxication cases (G1, PSS, TSS). More on the design: species or system human. The note with it: for G total (risk score): G1+G2+G3, higher value = greater toxicological risk; for G2: mean Poison Severity Score (PSS) of all intoxications with the SCRA; for G3: mean Toxicological Significance Score (TSS) of all intoxications with the SCRA; for G1: proportion in intoxication cases relative to prevalence in routine serum/blood and urine samples per quarter, 2013–2021, >1 over‐represented in intoxications. The source says: Therefore, higher values indicate substances with a higher risk. […] To take into account the severity of symptoms and the contribution of the specific NPS, two further summands were introduced. The first is based on the PSS, the second on the TSS. Again, higher values were associated with more severe symptoms and a stronger role of the NPS in causing the symptoms.
The risk score is composed of three components (parts G1, G2 and G3) and was designed as follows: (1) Gx=G1x+G2x+G3x,
Equation 2 takes into consideration several components: the number of intoxications with SCRA x in quarter k over the total number of intoxications of all investigated SCRAs in the same quarter; the number of serum/blood samples positive for SCRA x over the total number of serum/blood samples positive for all SCRAs plus the number of urine samples positive for SCRA x over the total number of urine samples positive for all SCRAs (this is divided by two to account for the two different sample types); and the number of quarters in which the SCRA x was prevalent. (2) G1x=∑k=1gak/bk/ck/dk+ek/fk/2/h+i
Consequently, equation 2 was mathematically rearranged. To further simplify the equation and reduce the formula signs, in equation 3 the following simplifications were taken: a/b=ai , c/d=as and e/f=au .
The sum of these quotients was divided by the number of all prevalent quarters (q p ). Prevalent quarters were defined as quarters in which on average the substance was detected in more than 5% of the positive serum and urine samples. If a poisoning occurred in a quarter in which the substance was not prevalent, the number of these quarters was added (q i ). This part of the score has similarities with an OR [42]. If the proportion of routine samples in a given quarter in which an intoxication with the respective substance occurred was zero (a s + a u = 0), a value of 0.01 was used for that quarter in the calculation of the quotient to avoid division by zero.
For part G2, the severity of the intoxication caused by the respective SCRA x was assessed on the basis of reported symptoms and follow‐up information using the PSS [20]. The PSS classifies the intoxication severity into five levels: (0) no, (1) mild, (2) moderate, (3) severe, and (4) fatal intoxication. […] For this purpose, the mean value of the PSS of all intoxications with the respective SCRA x was calculated ( G2x) .
For part G3, the involvement of the SCRA in the respective intoxications was assessed. This was evaluated on the basis of the TSS [21]. Elliott et al. developed the TSS to assess and classify the contribution of NPS in fatalities. In the present study, the TSS was determined to weigh the involvement of the investigated SCRA in the intoxication and the contribution of the SCRA to the observed symptoms. To determine the TSS value, factors such as the determined concentration of the SCRA, the presence of other recreational drugs or medicinal drugs, the general health of the patient and the consumption circumstances need to be considered. […] In cases with more than one drug detected, a TSS of 3 was only assigned where other compounds were present at concentrations below the range in which relevant effects are to be expected.
For the risk score, the mean value of the TSS of all intoxications with substance x was calculated ( G3x) . Analogous to the value of G2x , the value of G3x can theoretically be between 1 and 3. With a value of ‘1’, substance x was not mainly responsible for the symptoms in all of the intoxications (low level of significance), and with a value of ‘3’, it was the main cause in every poisoning in which it was detected.

Series [4] concerns the target T1, hCB1 receptor. The note with it: cited from earlier work; for EC50: read-out: βarr2 assay EC50 [nM] (95% CI); for βarr2 assay Emax [%] (95% CI): relative to CP‐55940.
The target of series [5] is T1, hCB1 receptor. The series can be described thus: functional [35S]GTPγS hCB1 activation assay. It is filed as biochemical. Particulars: for Emax: read-out: [35S]‐GTPγS assay Emax [%] (95% CI). The method, then: (§2) Receptor assays were performed on three different days and each concentration was tested in duplicate.
For orientation: GTPγS resists hydrolysis and so accumulates on activated G proteins.

For series [6], the target named is T1, hCB1 receptor. The series can be described thus: competitive [3H]CP‐55940 radioligand binding assay (hCB1 receptor affinity). Particulars: [3H]CP‐55940 competition, hCB1 membrane preparations (HEK293‐EBNA), Cheng–Prusoff, 95% CI in brackets. The method, then:
as §2
From the IC50, the respective Ki values were calculated using the Cheng–Prusoff equation [39].

The nature of series [7]: occurrence of SCRAs in intoxication samples of the prospective study. More on the design: species or system human. The note with it: 2013 to 2021; for No. of intoxications: 139 intoxication samples of the prospective study; for Percentage in %: proportion of 139 intoxications in which the substance was detected.
Text: For this study, the 10 SCRAs (AB‐[…], ADB‐[…], AB‐FUBINACA, FUB‐AMB, Cumyl‐PEGACLONE, MDMB‐4en‐PINACA, MDMB‐CHMICA, 5F‐MDMB‐PICA, 5F‐ADB and 5F‐PB‐22) which were most frequently detected in intoxications in a prospective observational study during the time period of 2013 to 2021 were selected (see Table 1). Additionally, JWH‐210, a model compound representative of the early SCRAs, along with two substances prevalent in screenings during years 2019/2020 (5F‐Cumyl‐PEGACLONE and 4F‐MDMB‐BICA), were included in this study (see Tables S2–S7). […] JWH‐018 was also included as a reference compound because of its historical use in this capacity. Including both reference compounds facilitates direct comparison with previously published data, thereby enhancing the relevance and interpretability of the results obtained in the present study. Information on the origin of the test and reference compounds and all chemicals used in this study can be found in Table S1.
as §1

Where [8] appears, read: intoxication case B (AB‐CHMINACA).

Where two headings read alike, the source gives them in different places. Marks after values point to notes of the source that are not given here.

T1 sequence (P21554 whole entry): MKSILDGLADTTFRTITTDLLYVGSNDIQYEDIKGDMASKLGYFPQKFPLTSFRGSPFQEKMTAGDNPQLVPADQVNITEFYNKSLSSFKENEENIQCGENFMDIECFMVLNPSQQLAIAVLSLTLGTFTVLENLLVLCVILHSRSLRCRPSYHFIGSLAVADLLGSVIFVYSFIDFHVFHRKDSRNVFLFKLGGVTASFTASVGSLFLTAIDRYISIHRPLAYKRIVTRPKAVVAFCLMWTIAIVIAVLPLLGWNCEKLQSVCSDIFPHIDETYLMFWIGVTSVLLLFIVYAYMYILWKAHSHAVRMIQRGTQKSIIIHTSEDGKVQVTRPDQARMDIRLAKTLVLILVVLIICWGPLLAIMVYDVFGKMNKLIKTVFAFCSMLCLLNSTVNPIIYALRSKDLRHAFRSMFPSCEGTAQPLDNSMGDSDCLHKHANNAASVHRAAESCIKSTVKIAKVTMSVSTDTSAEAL

For the compound `COC(=O)C(NC(=O)c1nn(Cc2ccc(F)cc2)c2ccccc12)C(C)C` (centres unmarked) [FUB‐AMB], the 50% effective concentration (EC50) (commonly the concentration giving half of the maximal effect) at hCB1 receptor [1] (read-out: [35S]‐GTPγS assay EC50 [nM] (95% CI), ref Gamage et al. [40]) is 0.543 nM. Besides, the “[35S]‐GTPγS assay Emax [%] (95% CI)” value at hCB1 receptor [1] (relative to CP‐55940, cell without footnote mark, EC50 of the same line from ref Gamage et al. [40]) is 69.42 (62.6–76.2) %.
Compound `O=C(c1cccc2ccccc12)c1nn(CCCCCF)c2ccccc12` [THJ-2201] registered a Concentration in serum in series [2] (setting [8]) of under 0.1 ng/mL.
Take `O=C(Oc1cccc2cccnc12)c1cn(CCCCCF)c2ccccc12` [5F‐PB‐22]: in series [3], the “G total (risk score)” value stood at 9.9, the G2 is 1.9, the G3 came out at 2.7 and the G1 was 5.3. Also, on hCB1 receptor [4] (ref Wouters et al. [31]), the EC50 is 0.32 nM and the “βarr2 assay Emax [%] (95% CI)” value is 980.2 ^d (888.2–1072) %. Besides, at hCB1 receptor [5], the EC50 stood at 2.73 nM and the Emax – broadly, the maximal effect, on the per cent scale that the assay sets – was 124%. Besides, the Ki (as a rule, a dissociation constant, usually derived from enzyme kinetics or from competition with a known ligand) at hCB1 receptor [6] (Ki [nM] (95% CI)) stood at 0.0996 nM. The Concentration in serum in series [2] (setting [8]) is on record as about 1.5 ng/mL. Besides, in series [7], the No. of intoxications amounted to 13 and the Percentage in % amounted to 9.4%.
The compound `CCCCCn1nc(C(=O)c2cccc3ccccc23)c2ccccc21` [THJ-018] registered a Concentration in serum in series [2] (setting [8]) of under 0.1 ng/mL.
In the case of `CCCCCn1cc(C(=O)c2ccc(CC)c3ccccc23)c2ccccc21` [JWH‐210], in series [3], the “G total (risk score)” value came to 5.7, the G2 came out at 1.6, the G3 came to 2.7 and the G1 was 1.4. Further, the EC50 at hCB1 receptor [4] (ref Cannaert et al. [45]) was 25.3 nM. Also, the “βarr2 assay Emax [%] (95% CI)” value on hCB1 receptor [4] (originally normalised to JWH‐018, corrected with factor 0.3268, ref Cannaert et al. [45]) is listed as 714.2 (672.3–759.5) ^a ^, ^i %. Also, on hCB1 receptor [5], a half-maximal effect (EC50) was put at 41.9 nM and the Emax came out at 93.4%. Moreover, the Ki at hCB1 receptor [6] (read-out: Ki [nM] (95% CI)) is 1.43 nM. In series [7], this compound displayed a No. of intoxications of 3 and a Percentage in % of 2.2%.
`O=C(NC12CC3CC(CC(C3)C1)C2)c1nn(CCCCCF)c2ccccc12` [5F-AKB-48] returned a Concentration in serum in series [2] (setting [8]) of under 0.1 ng/mL.
As for `CCCCCn1c2ccccc2c2c(=O)n(C(C)(C)c3ccccc3)ccc21` [Cumyl‐PEGACLONE], in series [3], the “G total (risk score)” value came out at 4.5, the G2 is 2.0, the G3 was found to be 2.2 and the G1 came out at 0.32. Further, the EC50 at hCB1 receptor [4] (ref Janssens et al. [43]) is 0.23 nM. Moreover, at hCB1 receptor [4] (originally normalised to JWH‐018, corrected with factor 0.3268, ref Janssens et al. [43]), the “βarr2 assay Emax [%] (95% CI)” value is reported as 1053 (960.8–1148) ^a %. At hCB1 receptor [5], the EC50 was determined as 12.4 nM and the Emax amounted to 117%. The compound also came in with a Ki on hCB1 receptor [6] (Ki [nM] (95% CI)) of 0.242 nM. In series [7], this compound yielded a No. of intoxications of 5 and a Percentage in % of 3.6%.
`CNC(C)C(=O)c1cccc(C)c1` (centres unmarked) [3‐MMC]: the Concentration in serum is given as 320 ng/mL in series [2] (intoxication case A (AB‐CHMINACA)) and ~3-MMC approximately 320 ng/mL in series [2] (intoxication case A (AB‐CHMINACA), listed as 3-MMC).
